Source: patent publication US11667638B2, “4-substitued cytisine analogues” (The University of Bristol, priority 2016, dated 2023)
Read-outs that look alike come from different tables or passages of the source.

What was measured:
α7 nAChRs = α7 nAChRs (Homo sapiens (Human), UniProt P36544); type: cell-based; conditions: compounds at 100 μM, relative to 1 mM ACh
Experimental: (§1) Compounds of the invention were tested for effects on the function of human α4β2, α3β4 and α7 nicotinic acetylcholine receptors (nAChRs) expressed heterologously in Xenopus oocytes. […] Expression in oocytes was obtained as follows: pCI (Promega, UK) plasmid containing human α4, β2, β4 or α7 complementary DNA were injected as previously described (Moroni et al., 2006). To express (α4)3(β2)2 nACh receptors, a mixture of 10α4:1β2 cDNAs was injected into the nucleus of oocytes, whereas for (α4)2(β2)3 receptors the cDNA ratio injected was 1α4:10β2.
(§2) Functional studies: Recordings were performed manually using a Geneclamp amplifier (Molecular Devices, USA) or using an automated HiClamp system. In both cases the oocytes were impaled with two electrodes filled with 3 M KCl and the cells were held at −60 mV throughout the experiments.
(§3) Oocyte isolation and two-electrode voltage-clamp recordings on oocytes were carried out as previously described (Moroni et al., 2006; Carbone et al., 2009). […] A minimum interval of 5 min was allowed between agonist applications to ensure reproducible recordings. Oocytes were exposed to increasing concentrations of the compounds until no further increases in the response amplitude were obtained. This concentration was taken as the concentration that causes maximal responses on the receptors tested. The data summarised in Tables 1-4 were obtained from at least 5 experiments carried out on oocytes obtained from at least three different donors.

(α4)3(β2)2 nAChRs = (α4)3(β2)2 nAChRs (Homo sapiens (Human), UniProt P17787+P43681); test: Maximal gating efficacy on (α4)3(β2)2 nAChRs in Xenopus oocytes, two electrode voltage clamp; type: cell-based
Sequence of (α4)3(β2)2 nAChRs (P43681 29-627): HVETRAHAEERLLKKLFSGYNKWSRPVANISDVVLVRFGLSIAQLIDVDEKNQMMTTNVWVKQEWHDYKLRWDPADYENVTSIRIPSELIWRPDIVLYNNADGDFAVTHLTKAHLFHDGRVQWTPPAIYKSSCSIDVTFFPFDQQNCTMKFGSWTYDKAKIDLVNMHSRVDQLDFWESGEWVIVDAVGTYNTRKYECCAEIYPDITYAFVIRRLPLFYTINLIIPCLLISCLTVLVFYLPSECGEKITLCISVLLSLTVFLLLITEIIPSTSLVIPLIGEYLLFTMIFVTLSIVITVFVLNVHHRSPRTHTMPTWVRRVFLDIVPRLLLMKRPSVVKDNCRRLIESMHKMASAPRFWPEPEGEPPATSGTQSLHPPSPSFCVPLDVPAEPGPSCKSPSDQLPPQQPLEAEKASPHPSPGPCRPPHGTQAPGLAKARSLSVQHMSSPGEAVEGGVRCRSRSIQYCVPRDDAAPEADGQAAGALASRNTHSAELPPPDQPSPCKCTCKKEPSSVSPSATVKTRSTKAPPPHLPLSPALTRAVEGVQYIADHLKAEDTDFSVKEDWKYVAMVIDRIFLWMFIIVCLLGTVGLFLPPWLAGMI
Sequence of (α4)3(β2)2 nAChRs (P17787 26-502): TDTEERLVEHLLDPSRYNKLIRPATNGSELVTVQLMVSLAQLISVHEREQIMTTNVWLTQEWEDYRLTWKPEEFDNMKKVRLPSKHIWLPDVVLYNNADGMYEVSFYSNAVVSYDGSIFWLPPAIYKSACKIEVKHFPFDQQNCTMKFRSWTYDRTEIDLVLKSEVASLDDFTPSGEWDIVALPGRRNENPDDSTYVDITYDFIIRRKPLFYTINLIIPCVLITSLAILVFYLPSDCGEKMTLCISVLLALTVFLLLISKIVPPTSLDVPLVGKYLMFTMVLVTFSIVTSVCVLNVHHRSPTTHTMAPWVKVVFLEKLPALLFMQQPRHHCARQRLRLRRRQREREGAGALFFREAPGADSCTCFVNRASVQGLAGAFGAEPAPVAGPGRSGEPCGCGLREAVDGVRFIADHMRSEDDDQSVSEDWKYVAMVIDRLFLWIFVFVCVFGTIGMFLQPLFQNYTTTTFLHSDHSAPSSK
Experimental: as §1, §2, §3
Maximal gating efficacy of the compounds: The concentration of the compounds of the invention causing maximal activation of the (α4)3(β2)2 nAChRs expressed heterologously in Xenopus oocytes was determined using two electrode voltage clamping.

(α4)2(β2)3 nAChRs = (α4)2(β2)3 nAChRs (Homo sapiens (Human), UniProt P17787+P43681); test: Maximal gating efficacy on (α4)2(β2)3 nAChRs in Xenopus oocytes, two electrode voltage clamp; type: cell-based
Sequence of (α4)2(β2)3 nAChRs (P43681 29-627): as the sequence (P43681 29-627) above
Sequence of (α4)2(β2)3 nAChRs (P17787 26-502): as the sequence (P17787 26-502) above
Experimental: as §1, §2, §3
Maximal gating efficacy of compounds on (α4)2(β2)3 receptors (high sensitivity receptors): The concentration of the compounds causing maximal activation of the (α4)2(β2)3 nAChRs expressed heterologously in Xenopus oocytes was determined using two electrode voltage clamping.

α3β4 nAChRs = α3β4 nAChRs (Homo sapiens (Human), UniProt P30926+P32297); test: Maximal gating efficacy on α3β4 nAChRs in Xenopus oocytes, two electrode voltage clamp; type: cell-based; conditions: maximal current relative to 1 mM ACh
Sequence of α3β4 nAChRs (P32297 32-505): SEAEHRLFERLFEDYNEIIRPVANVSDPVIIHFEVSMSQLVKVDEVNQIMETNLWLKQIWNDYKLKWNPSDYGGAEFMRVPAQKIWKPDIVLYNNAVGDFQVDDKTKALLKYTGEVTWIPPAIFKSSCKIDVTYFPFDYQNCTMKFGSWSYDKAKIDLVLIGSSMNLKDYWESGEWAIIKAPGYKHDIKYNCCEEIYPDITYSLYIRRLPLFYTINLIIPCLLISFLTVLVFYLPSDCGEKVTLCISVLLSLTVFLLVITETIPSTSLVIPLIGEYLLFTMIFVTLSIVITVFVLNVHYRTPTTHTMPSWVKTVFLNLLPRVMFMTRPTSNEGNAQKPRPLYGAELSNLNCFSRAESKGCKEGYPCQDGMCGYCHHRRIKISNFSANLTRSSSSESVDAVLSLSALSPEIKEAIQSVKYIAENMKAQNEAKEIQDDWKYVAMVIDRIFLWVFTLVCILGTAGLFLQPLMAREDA
Sequence of α3β4 nAChRs (P30926 22-498): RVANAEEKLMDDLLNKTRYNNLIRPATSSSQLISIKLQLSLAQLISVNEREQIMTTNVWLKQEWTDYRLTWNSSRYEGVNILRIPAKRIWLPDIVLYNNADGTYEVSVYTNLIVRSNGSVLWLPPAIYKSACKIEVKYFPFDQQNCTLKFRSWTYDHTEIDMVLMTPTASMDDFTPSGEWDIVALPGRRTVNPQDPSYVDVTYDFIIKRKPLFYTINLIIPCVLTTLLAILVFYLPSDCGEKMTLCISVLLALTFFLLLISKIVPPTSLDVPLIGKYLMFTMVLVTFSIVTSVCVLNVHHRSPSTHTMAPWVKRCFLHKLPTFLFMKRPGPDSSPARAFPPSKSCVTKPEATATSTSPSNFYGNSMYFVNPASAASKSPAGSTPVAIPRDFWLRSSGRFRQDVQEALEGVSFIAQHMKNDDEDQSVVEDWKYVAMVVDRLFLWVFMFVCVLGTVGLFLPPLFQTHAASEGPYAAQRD
Experimental: as §1, §2, §3
Maximal gating efficacy of the compounds on α3β4 nAChRs: The concentration of the compounds causing maximal activation of α3β4 nAChRs expressed heterologously in Xenopus oocytes was determined using two electrode voltage clamping.

α4β2 nAChR = α4β2 nAChR (Homo sapiens (Human), UniProt P17787+P43681); type: binding; conditions: ratio of Ki values
Sequence of α4β2 nAChR (P43681 29-627 limits assumed): as the sequence (P43681 29-627) above
Sequence of α4β2 nAChR (P17787 26-502 limits assumed): as the sequence (P17787 26-502) above
Experimental: HEK 293 cells were grown in Dulbecco's modified Eagle medium supplemented with 10% fetal bovine serum, 1% L-Glutamine, 100 units/ml penicillin G, and 100 μg/streptomycin in a humidified atmosphere containing 10% CO2. The cDNAs encoding α3 and β4 or α4 and β2 (were transfected into the HEK 293 cells at 30% confluency). The cell transfections were carried out in 100 mm Petri dishes using 30 μL of JetPEI™ (Polypus, France) (1 mg/ml, pH 7.2) and 3 μg of each cDNA. After 24 h transfection, the cells were collected, washed with PBS by centrifugation, and used for binding analysis.
[^3H]-epibatidine saturation binding experiments to HEK transfected α3β4 or α4β2 receptors were performed by means of overnight incubation at 4° C. at concentrations ranging from 0.005 to 1 nM in a buffer containing 50 mM Tris-HCl, pH 7, 150 mM NaCl, 5 mM KCl, 1 mM MgCl2, 2.5 mM CaCl2 and 2 mg/ml BSA, in the presence (aspecific binding) or absence (total binding) of 100 nM cold epibatidine. Specific ligand binding was defined as total binding minus the binding in the presence of 100 nM cold epibatidine.
After incubation, the membranes of HEK cells transfected with α4β2* or α3β4 subtypes were washed by filtration on GFC filters with ice-cold PBS. The GFC filters were pre-soaked in polyethylenimine and filtered through an harvester apparatus. [^3H]-epibatidine binding was determined by means of liquid scintillation counting in a beta counter.
The ligand binding data were analyzed by means of nonlinear regression using Prism version 5 (GraphPad Software, Inc., La Jolla, Calif.). The Ki values were calculated from the experimental IC50 values using the Cheng-Prusoff equation for a single population of competitive sites: Ki=IC50/[1+(L/Kd)], where L is the concentration of radioligand used in each experiment and the Kd values were determined by saturation binding experiment. All of the assays were performed in duplicate and repeated at least two-three times.

[1] = (α4)3(β2)2, low sensitivity stoichiometry, maximal current relative to 1 mM ACh
[2] = (α4)2(β2)3, high sensitivity receptors, maximal current relative to 1 mM ACh

Sequence of α7 nAChRs (P36544 23-502): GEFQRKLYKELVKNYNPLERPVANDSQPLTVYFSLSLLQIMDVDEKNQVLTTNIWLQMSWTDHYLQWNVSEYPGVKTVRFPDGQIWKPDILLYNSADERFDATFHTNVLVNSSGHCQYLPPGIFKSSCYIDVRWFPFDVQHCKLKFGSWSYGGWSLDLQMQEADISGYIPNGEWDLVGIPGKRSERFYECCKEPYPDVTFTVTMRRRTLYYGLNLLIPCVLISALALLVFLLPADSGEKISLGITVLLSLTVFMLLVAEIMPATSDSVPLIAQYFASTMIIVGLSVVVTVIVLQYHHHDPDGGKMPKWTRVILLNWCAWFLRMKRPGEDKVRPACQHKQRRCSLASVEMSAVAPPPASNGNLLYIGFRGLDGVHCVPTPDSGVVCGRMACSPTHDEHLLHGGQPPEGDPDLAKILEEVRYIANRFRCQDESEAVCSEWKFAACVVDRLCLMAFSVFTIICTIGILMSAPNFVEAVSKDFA

| SMILES | Relative efficacy (ACh) (α7 nAChRs) | Relative efficacy (ACh) ((α4)3(β2)2 nAChRs; [1]) | Relative efficacy (ACh) ((α4)2(β2)3 nAChRs; [2]) | Relative efficacy (ACh) (α3β4 nAChRs) | Ratio α3β4/α4β2 (α4β2 nAChR) | Relative efficacy (ACh) ((α4)3(β2)2 nAChRs) | Relative efficacy (ACh) ((α4)2(β2)3 nAChRs) |
| --- | --- | --- | --- | --- | --- | --- | --- |
| CCc1cc2n(c(=O)c1)CC1CNC[C@@H]2C1.Cl (single isomer, unassigned; (-)) [Compound 118, (−)4-Ethylcytisine] | 0.0057 ± 0.0028 | 0.036 ± 0.055 | 0.062 ± 0.025 | 0.086 ± 0.106 | 1901.3 | – | – |
| Cl.O=c1c(C(F)(F)F)c(Br)cc2n1CC1CNC[C@@H]2C1 (single isomer, unassigned; (-)) [Compound 162, (−)3-(Trifluoromethyl)-4-bromocytisine] | – | 0.072 ± 0.026 | 0.042 ± 0.060 | 0.250 ± 0.077 | 136.4 | – | – |
| CNc1cc2n(c(=O)c1)CC1CNC[C@@H]2C1 (single isomer, unassigned; (+)) [Compound 84, (+)4-(N-Methylamino)cytisine] | – | 0.048 ± 0.040 | 0.042 ± 0.059 | 0.0233 ± 0.005 | 2546.3 | – | – |
| CNc1cc2n(c(=O)c1Br)CC1CNC[C@@H]2C1 (single isomer, unassigned; (+)) [Compound 158, (+)3-Bromo-4-N-methylaminocytisine] | – | 0.049 ± 0.012 | 0.038 ± 0.054 | 0.057 ± 0.016 | 106.9 | – | – |
| CN(Cc1cc2n(c(=O)c1)CC1CNC[C@@H]2C1)Cc1cc2n(c(=O)c1)CC1CNC[C@@H]2C1 (stereo in doubt) [Compound 156, Methylamino bis(cytisine) derivative] | – | 0.052 ± 0.007 | No response | 0.012 ± 0.007 | 207.3 | – | – |
| Cc1ccc(-c2cc3n(c(=O)c2)CC2CNC[C@@H]3C2)cc1 (single isomer, unassigned; (+)) [Compound 73, (+)4-p-Tolylcytisine] | 0.0027 ± 0.0021 | – | – | 0.076 ± 0.093 | 161.7 | 0.017 ± 0.019 | 0.030 ± 0.013 |
| N#Cc1cc2n(c(=O)c1)CC1CNC[C@@H]2C1 (single isomer, unassigned; (-)) [Compound 140, (−)4-Cyanocytisine] | – | 0.050 ± 0.027 | 0.026 ± 0.036 | 0.172 ± 0.064 | 199.5 | – | – |
| O=c1cc(Br)cc2n1CC1CNC[C@@H]2C1 (single isomer, unassigned; (-)) [Compound 62, (−)4-Bromocytisine] | 0.28 ± 0.01 | 0.057 ± 0.007 | 0.009 ± 0.0001 | 0.184 ± 0.046 | 303.4 | – | – |
| C#Cc1cc2n(c(=O)c1)CC1CNC[C@@H]2C1.Cl (single isomer, unassigned; (-)) [Compound 127, (−)4-(acetylenyl)cytisine] | 0.17 ± 0.03 | 0.071 ± 0.009 | 0.009 ± 0.0009 | 0.165 ± 0.064 | 710.5 | – | – |
| CC(=O)Nc1cc2n(c(=O)c1)CC1CNC[C@@H]2C1.Cl (single isomer, unassigned; (+)) [Compound 94, (+)4-(N-acetylamino)cytisine] | 0.0001 ± 0.00001 | 0.153 ± 0.006 | 0.001 ± 0.0006 | 0.055 ± 0.047 | 751.0 | – | – |
| COc1cc2n(c(=O)c1)CC1CNC[C@@H]2C1 (single isomer, unassigned; (-)) [Compound 69, (−)4-Methoxycytisine] | 0.061 ± 0.09 | 0.071 ± 0.009 | 0.009 ± 0.0008 | 0.044 ± 0.059 | 206.1 | – | – |
| CC(=O)NCc1cc2n(c(=O)c1)CC1CNC[C@@H]2C1.Cl (single isomer, unassigned; (-)) [Compound 148] | – | 0.041 ± 0.057 | 0.015 ± 0.021 | 0.034 ± 0.038 | 204.8 | – | – |
| O=c1c(Br)c(O)cc2n1CC1CNCC2C1 (single isomer, unassigned; (-)) [BS70, (−)-(3-bromo-4-hydroxy)cytisine] | – | 0.114 ± 0.113 | – | 0.108 ± 0.149 | – | – | – |
| CC(=O)OCC[N+](C)(C)C [ACh, reference compound] | – | 1 | 1.0 | 1.0 | – | – | – |
| CCNc1cc2n(c(=O)c1)CC1CNCC2C1 (single isomer, unassigned; (+)) [Compound 87, (+)4-(N-ethylamino)cytisine] | – | 0.011 ± 0.001 | 0.023 ± 0.032 | 0.010 ± 0.009 | 835.2 | – | – |
| c1cnc2cc3c(cc2n1)[C@@H]1CNC[C@H]3C1 [Varenicline, reference compound] | 0.96 ± 0.03 | 0.40 ± 0.09 | 0.14 ± 0.03 | 0.51 ± 0.09 | – | – | – |
| Nc1cc2n(c(=O)c1)CC1CNC[C@@H]2C1 (single isomer, unassigned; (+)) [Compound 81, (+)4-aminocytisine] | – | 0.007 ± 0.01061 | 0.024 ± 0.034 | 0.0210 ± 0.008 | 1561.0 | – | – |
| CNCc1cc2n(c(=O)c1)CC1CNC[C@@H]2C1 (single isomer, unassigned; (-)) [Compound 152, (−)4-((N-methyl)aminomethyl)cytisine] | – | 0.031 ± 0.043 | – | – | 807.0 | – | – |
| Nc1cc2n(c(=O)c1Br)CC1CNCC2C1 (single isomer, unassigned; (+)) [BS71, (+)-(3-bromo-4-amino)cytisine] | – | 0.152 ± 0.1223 | – | 0.632 ± 0.067 | – | – | – |
| COC(=O)c1cc2n(c(=O)c1)CC1CNC[C@@H]2C1 (single isomer, unassigned; (-)) [Compound 119, (−)4-carboxymethycytisine] | – | 0.021 ± 0.007 | 0.0065 ± 0.0005 | 0.040 ± 0.049 | 366.5 | – | – |
| CCc1cc2n(c(=O)c1Br)CC1CNCC2C1 (single isomer, unassigned; (-)) [BS74, (−)-(3-bromo-4-ethyl)cytisine] | – | 0.126 ± 0.067 | 0.121 ± 0.171 | 1.75 ± 0.56 | – | – | – |
